Laboratory results taken from patent US20040102320A1, “NATURAL HERBICIDE FOR WEED REMOVAL” (priority 2002, published 2004).

System: grass, including crabgrass and other weeds
Details: 100% of sodium bicarbonate

Q: Which killing of grass does the source give for `O=C([O-])O.[Na+]` [sodium bicarbonate] here?
A: Its killing of grass is “would kill grass, including crabgrass and other weeds”.
